Columns and labels:
PnpA = molecular target: T1, PnpA (Pseudomonas putida, UniProt C6FI48); experiment: colour change of PNP oxidation by purified enzyme; type: biochemical; conditions: conditions as in an earlier paper
T1 construct: His-tagged (pET-pnpAhis), expressed in E. coli BL21(DE3), purified
T1 sequence (C6FI48 1-418): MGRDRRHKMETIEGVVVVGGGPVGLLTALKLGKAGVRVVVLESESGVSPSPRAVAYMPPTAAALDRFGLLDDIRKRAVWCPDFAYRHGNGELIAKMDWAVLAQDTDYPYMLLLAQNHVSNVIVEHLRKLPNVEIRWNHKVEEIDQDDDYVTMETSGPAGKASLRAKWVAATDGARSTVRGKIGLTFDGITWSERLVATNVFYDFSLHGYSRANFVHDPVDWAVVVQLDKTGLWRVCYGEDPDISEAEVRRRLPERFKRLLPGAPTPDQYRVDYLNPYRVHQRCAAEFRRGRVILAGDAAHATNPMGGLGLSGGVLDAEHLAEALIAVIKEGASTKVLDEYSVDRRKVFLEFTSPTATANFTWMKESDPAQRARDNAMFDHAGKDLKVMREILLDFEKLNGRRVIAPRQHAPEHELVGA

PnpC1C2 = molecular target: T2, PnpC1C2 (Pseudomonas putida, UniProt C6FI41); experiment: UV spectral change, absorption increase at […] nm; type: biochemical; conditions: conditions as in an earlier paper
T2 construct: gene pnpC2; two-subunit complex, C-terminal His tag, expressed in E. coli BL21(DE3), Ni-NTA purified; with hydroquinone dioxygenase alpha subunit (hydroquinone 1,2-dioxygenase small subunit)
T2 sequence (C6FI41 1-339): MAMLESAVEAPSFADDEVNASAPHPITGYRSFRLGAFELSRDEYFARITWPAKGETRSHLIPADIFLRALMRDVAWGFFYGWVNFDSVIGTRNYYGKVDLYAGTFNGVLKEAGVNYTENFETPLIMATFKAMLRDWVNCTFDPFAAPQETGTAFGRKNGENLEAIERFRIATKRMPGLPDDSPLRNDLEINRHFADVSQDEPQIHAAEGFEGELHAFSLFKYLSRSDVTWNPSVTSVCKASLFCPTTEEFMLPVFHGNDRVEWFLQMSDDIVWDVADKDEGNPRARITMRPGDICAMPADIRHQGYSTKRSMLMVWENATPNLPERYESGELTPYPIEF
T2 sequence (C6FI40 1-164 partner): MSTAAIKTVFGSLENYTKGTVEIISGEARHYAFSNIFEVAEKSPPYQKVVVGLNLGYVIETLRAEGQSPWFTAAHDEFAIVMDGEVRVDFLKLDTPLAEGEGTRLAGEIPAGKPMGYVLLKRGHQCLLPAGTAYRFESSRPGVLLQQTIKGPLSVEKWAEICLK

O=[N+]([O-])c1ccc(O)cc1 [para-nitrophenol]
colour change of PNP oxidation by purified enzyme (PnpA): only PnpA had the ability to oxidize PNP

Oc1ccc(O)cc1 [hydroquinone]
UV spectral change, absorption increase at 320 nm (PnpC1C2): PnpC1C2 and PnpC1C2b both transformed HQ into γ-hydroxymuconic semialdehyde in vitro
